The subject of the experiment is SU-DHL-4 cell line. Put plainly: SU-DHL-4 cell proliferation assay (Cell Titer-Glo viability). The experiment is classed as cell-based. The following applies: Homo sapiens; cell viability IC50 activity level, DLBCL cell line SU-DHL-4, 120 hours post-treatment; read-out: SU-DHL-4 Act. Here is the method:
SU-DHL-4 Cell Proliferation Assay.
The following is an example of an assay that can be used to determine the anti-proliferative activity of Isoindolinedione Compounds in a DLBCL cell line, for example, the SU-DHL-4 cell line (Deutsche Sammlung von Mikroorganismen and Zellkulturen GmbH [DSMZ]: catalogue number ACC-495) at 120 hours post-treatment. The seeding density for SU-DHL-4 can be optimized to ensure assay linearity in 1536-well plates.
Increasing concentrations of test compounds (0.5 nM to 10 μM) were spotted in a 20-point dilution fashion (unevenly spaced data points) via an acoustic dispenser (EDC ATS-100) into an empty 1536-well plate. The DMSO concentration was kept constant for a final assay concentration of 0.1% DMSO. Prior to testing, SU-DHL-4 cells were grown in RPMI-1640 (Roswell Park Memorial Institute—1640) medium with 10% FBS (fetal bovine serum: HyClone) and expanded in culture flasks to provide sufficient amounts of starting material. Cells were then diluted to 500 cells per well in a 5 μL volume, and added directly to the compound-spotted 1536-well plates. Cells were allowed to grow for 120 hours in 5% CO2 at 37° C. At the time when exposure of cells to compound began (to), initial viable cell number was assessed via Cell Titer-Glo® Luminescent Cell Viability Assay at a 1 vol:2 vol ratio according to manufacturer's instructions (Promega Corporation, Madison, Wis.) by quantifying the level of luminescence generated by adenosine-5′-triphosphate (ATP) present in viable cells. After 120 hours, cell viability of the treated cells was assessed via Cell Titer-Gb® and read for luminescence. All growth inhibition curves were processed and evaluated using Activity Base (IDBS, Alameda, Calif.). Cell viability IC50 values were calculated using a four parameter logistic model (sigmoidal dose-response model): y=(A+((B−A)/(1+((C/x)^D)))) wherein: A=YMin B=YMax C=EC50 D=Hill slope IC50=the concentration of the compound when Y=50% of DMSO control Y=cell viability measured as luminescence unit, and x=concentration of compound.
On the technique in general: ATP-based viability assays read luminescence as a measure of living cells.
Take `O=C1CCC(N2C(=O)c3cccc(NCc4ccc(CN5CCN(c6ccc(C(F)(F)F)nc6)CC5)cc4)c3C2=O)C(=O)N1` (centres unmarked) [Cpd 10, 2-(2,6-dioxopiperidin-3-yl)-4-(4-((4-(6-(trifluoromethyl)pyridin-3-yl)piperazin-1-yl)methyl)benzylamino)isoindoline-1,3-dione]: the IC50 is 0.2 to 0.5 µM.

For the molecule `CCS(=O)(=O)N1CCN(Cc2ccc(CNc3cccc4c3C(=O)N(C3CCC(=O)NC3=O)C4=O)cc2)CC1` (centres unmarked) [Cpd 133, 2-(2,6-dioxopiperidin-3-yl)-4-(4-((4-(ethylsulfonyl)piperazin-1-yl)methyl)benzylamino)isoindoline-1,3-dione], the IC50 fell in the range of 0.2 to 0.5 µM.

Regarding `O=C1CCC(N2C(=O)c3cccc(NCc4ccc(CN5CCN(c6ccc(Cl)cn6)CC5)cc4)c3C2=O)C(=O)N1` (centres unmarked) [Cpd 18, 4-(4-((4-(5-chloropyridin-2-yl)piperazin-1-yl)methyl)benzylamino)-2-(2,6-dioxopiperidin-3-yl)isoindoline-1,3-dione], the IC50 was 0.751 to 1 µM.

As for `O=C1CCC(N2C(=O)c3cccc(NCc4ccc(CN5CC(N6CC7CCC(C6)O7)C5)cc4F)c3C2=O)C(=O)N1` (centres unmarked) [Cpd 225, 4-(4-((3-(8-oxa-3-azabicyclo[3.2.1]octan-3-yl)azetidin-1-yl)methyl)-2-fluorobenzylamino)-2-(2,6-dioxopiperidin-3-yl)isoindoline-1,3-dione], the IC50 is below 0.2 µM.

Turning to `Cc1cc(CNc2cccc3c2C(=O)N(C2CCC(=O)NC2=O)C3=O)ccc1CN1CCC(C)(C)CC1` (centres unmarked) [Cpd 42, 4-(4-((4,4-dimethylpiperidin-1-yl)methyl)-3-methylbenzylamino)-2-(2,6-dioxopiperidin-3-yl)isoindoline-1,3-dione], the IC50 was below 0.2 µM.

With `O=C1CCC(N2C(=O)c3cccc(NCc4ccc(CN5CCC(O)(c6ccccn6)CC5)cc4F)c3C2=O)C(=O)N1` (centres unmarked) [Cpd 167, 2-(2,6-dioxopiperidin-3-yl)-4-(2-fluoro-4-((4-hydroxy-4-(pyridin-2-yl)piperidin-1-yl)methyl)benzylamino)isoindoline-1,3-dione], the IC50 is below 0.2 µM.

Take `O=C1CCC(N2C(=O)c3cccc(NCc4ccc(CN5CCC(O)(c6ccccn6)CC5)cc4)c3C2=O)C(=O)N1` (centres unmarked) [Cpd 111, 2-(2,6-dioxopiperidin-3-yl)-4-(4-((4-hydroxy-4-(pyridin-2-yl)piperidin-1-yl)methyl)benzylamino)isoindoline-1,3-dione]: the IC50 is below 0.2 µM.

Take `Cc1cc(CNc2cccc3c2C(=O)N(C2CCC(=O)NC2=O)C3=O)ccc1CN1CCN(C2CCC2)CC1` (centres unmarked) [Cpd 70, 4-(4-((4-cyclobutylpiperazin-1-yl)methyl)-3-methylbenzylamino)-2-(2,6-dioxopiperidin-3-yl)isoindoline-1,3-dione]: the IC50 is below 0.2 µM.

For the molecule `O=C1CCC(N2C(=O)c3cccc(NCc4ccc(CN5CCN(c6ccc(F)cc6F)CC5)c(F)c4)c3C2=O)C(=O)N1` (centres unmarked) [Cpd 109, 4-(4-((4-(2,4-difluorophenyl)piperazin-1-yl)methyl)-3-fluorobenzylamino)-2-(2,6-dioxopiperidin-3-yl)isoindoline-1,3-dione], the IC50 was below 0.2 µM.

`CCc1nnc(N2CCN(Cc3ccc(CNc4cccc5c4C(=O)N(C4CCC(=O)NC4=O)C5=O)cc3)CC2)o1` (centres unmarked) [Cpd 198, 2-(2,6-dioxopiperidin-3-yl)-4-(4-((4-(5-ethyl-1,3,4-oxadiazol-2-yl)piperazin-1-yl)methyl)benzylamino)isoindoline-1,3-dione]: the IC50 fell in the range of 0.751 to 1 µM.

Regarding `Cc1cc(CNc2cccc3c2C(=O)N(C2CCC(=O)NC2=O)C3=O)ccc1CN1CCC2(CC1)CC2` (centres unmarked) [Cpd 44, 4-(4-(6-azaspiro[2.5]octan-6-ylmethyl)-3-methylbenzylamino)-2-(2,6-dioxopiperidin-3-yl)isoindoline-1,3-dione], the IC50 was below 0.2 µM.

With `O=C1CCC(N2C(=O)c3cccc(NCc4ccc(CN5CCC(F)(c6ccccn6)CC5)cc4F)c3C2=O)C(=O)N1` (centres unmarked) [Cpd 168, 2-(2,6-dioxopiperidin-3-yl)-4-(2-fluoro-4-((4-fluoro-4-(pyridin-2-yl)piperidin-1-yl)methyl)benzylamino)isoindoline-1,3-dione], the IC50 is below 0.2 µM.

On to `Cc1cc(CNc2cccc3c2C(=O)N(C2CCC(=O)NC2=O)C3=O)ccc1CN1CCN(c2ccc(C#N)cc2C)CC1` (centres unmarked) [Cpd 60, 4-(4-(4-((2-(2,6-dioxopiperidin-3-yl)-1,3-dioxoisoindolin-4-ylamino)methyl)-2-methylbenzyl)piperazin-1-yl)-3-methylbenzonitrile], for which the IC50 was below 0.2 µM.

Consider `Cc1cc(CNc2cccc3c2C(=O)N(C2CCC(=O)NC2=O)C3=O)ccc1CN1CCN(c2cccnc2C(N)=O)CC1` (centres unmarked) [Cpd 179, 3-(4-(4-((2-(2,6-dioxopiperidin-3-yl)-1,3-dioxoisoindolin-4-ylamino)methyl)-2-methylbenzyl)piperazin-1-yl)picolinamide], for which the IC50 lay in the range of 0.751 to 1 µM.

In the case of `Cc1cc(CNc2cccc3c2C(=O)N(C2CCC(=O)NC2=O)C3=O)ccc1CN1CCN(c2ccc(C(N)=O)nc2)CC1` (centres unmarked) [Cpd 49, 5-(4-(4-((2-(2,6-dioxopiperidin-3-yl)-1,3-dioxoisoindolin-4-ylamino)methyl)-2-methylbenzyl)piperazin-1-yl)picolinamide], the IC50 was below 0.2 µM.

In the case of `NC(=O)c1cc(N2CCN(Cc3ccc(CNc4cccc5c4C(=O)N(C4CCC(=O)NC4=O)C5=O)c(F)c3)CC2)ccn1` (centres unmarked) [Cpd 192, 4-(4-(4-((2-(2,6-dioxopiperidin-3-yl)-1,3-dioxoisoindolin-4-ylamino)methyl)-3-fluorobenzyl)piperazin-1-yl)picolinamide], the IC50 was below 0.2 µM.

As for `CC(C)(C)OC1CCN(Cc2ccc(CNc3cccc4c3C(=O)N(C3CCC(=O)NC3=O)C4=O)cc2)CC1` (centres unmarked) [Cpd 38, 4-(4-((4-tert-butoxypiperidin-1-yl)methyl)benzylamino)-2-(2,6-dioxopiperidin-3-yl)isoindoline-1,3-dione], the IC50 was below 0.2 µM.

As for `Cc1cc(CNc2cccc3c2C(=O)N(C2CCC(=O)NC2=O)C3=O)ccc1CN1CC(N2[C@H](C)COC[C@@H]2C)C1` (stereo partly drawn) [Cpd 240, 4-(4-((3-((3S,5R)-3,5-dimethylmorpholino)azetidin-1-yl)methyl)-3-methylbenzylamino)-2-(2,6-dioxopiperidin-3-yl)isoindolinne-1,3-dione], the IC50 is 0.2 to 0.5 µM.

Turning to `Cc1cc(CNc2cccc3c2C(=O)N(C2CCC(=O)NC2=O)C3=O)ccc1CN1CCC(C(F)F)CC1` (centres unmarked) [Cpd 48, 4-(4-((4-(difluoromethyl)piperidin-1-yl)methyl)-3-methylbenzylamino)-2-(2,6-dioxopiperidin-3-yl)isoindoline-1,3-dione], the IC50 was 0.2 to 0.5 µM.

For `Cc1cc(CNc2cccc3c2C(=O)N(C2CCC(=O)NC2=O)C3=O)ccc1CN1CCC2(CC1)CC(F)(F)C2` (centres unmarked) [Cpd 47, 4-(4-((2,2-difluoro-7-azaspiro[3.5]nonan-7-yl)methyl)-3-methylbenzylamino)-2-(2,6-dioxopiperidin-3-yl)isoindoline-1,3-dione], the IC50 was below 0.2 µM.

Regarding `NC(=O)c1ccc(N2CCN(Cc3ccc(CNc4cccc5c4C(=O)N(C4CCC(=O)NC4=O)C5=O)cc3F)CC2)cc1` (centres unmarked) [Cpd 141, 4-(4-(4-((2-(2,6-dioxopiperidin-3-yl)-1,3-dioxoisoindolin-4-ylamino)methyl)-2-fluorobenzyl)piperazin-1-yl)benzamide], the IC50 is below 0.2 µM.

Turning to `O=C1CCC(N2C(=O)c3cccc(NCc4ccc(CN5CCN(c6ccc(Cl)cc6)CC5)cc4)c3C2=O)C(=O)N1` (centres unmarked) [Cpd 3, 4-(4-((4-(4-chlorophenyl)piperazin-1-yl)metthyl)benzylamino)-2-(2,6-dioxopiperidin-3-yl)isoindoline-1,3-dione], the IC50 is 0.2 to 0.5 µM.

For `Cc1cc(CNc2cccc3c2C(=O)N(C2CCC(=O)NC2=O)C3=O)ccc1CN1CCN(C2CC2)CC1` (centres unmarked) [Cpd 66, 4-(4-((4-cyclopropylpiperazin-1-yl)methyl)-3-methylbenzylamino)-2-(2,6-dioxopiperidin-3-yl)isoindoline-1,3-dione], the IC50 was below 0.2 µM.

With `CN(C)C(=O)c1ccc(N2CCN(Cc3ccc(CNc4cccc5c4C(=O)N(C4CCC(=O)NC4=O)C5=O)c(F)c3)CC2)cn1` (centres unmarked) [Cpd 140, 5-(4-(4-((2-(2,6-dioxopiperidin-3-yl)-1,3-dioxoisoindolin-4-ylamino)methyl)-3-fluorobenzyl)piperazin-1-yl)-N,N-dimethylpicolinamide], the IC50 is 0.2 to 0.5 µM.

On to `O=C1CCC(N2C(=O)c3cccc(NCc4ccc(CN5CCOCC5)cc4F)c3C2=O)C(=O)N1` (centres unmarked) [Cpd 154, 2-(2,6-dioxopiperidin-3-yl)-4-(2-fluoro-4-(morpholinomethyl)benzylamino) isoindoline-1,3-dione], for which the IC50 was 0.2 to 0.5 µM.

For `O=C1CCC(N2C(=O)c3cccc(NCc4ccc(CN5CC(N6CC7CCC(C6)O7)C5)cc4)c3C2=O)C(=O)N1` (centres unmarked) [Cpd 224, 4-(4-((3-(8-oxa-3-azabicyclo[3.2.1]octan-3-yl)azetidin-1-yl)methyl)benzylamino)-2-(2,6-dioxopiperidin-3-yl)isoindoline-1,3-dione], the IC50 was below 0.2 µM.
